IC50 data for 20 compounds are collected here from patent publication US9290496B2, “Purine derivatives” (PFIZER INC., priority 2013, dated 2016).

Experiment [1] deals with T1, EGFR L858R+T790M, endogenous (NCI-H1975) (Homo sapiens, UniProt P00533, L858R/T790M).
T1 construct: NCI-H1975 (EGFR L858R+T790M, endogenous); host or cells: NCI-H1975
The experiment in a line: pEGFR Y1068 ELISA assay, NCI-H1975 cells. Format: cell-based. The conditions noted are these: inhibition of phosphorylation of EGFR at Tyr1068; NCI-H1975 NSCLC cells; 2 hr compound incubation. On the technique in general: ELISA stands for enzyme-linked immunosorbent assay.
Experimental: Phosphorylation of EGFR at Y1068 was measured by PathScan® Phospho-EGF Receptor (Try1068) Sandwich ELISA kit (#7240, Cell Signaling Technology®, Danvers, Mass.). The PathScan® Phospho-EGF Receptor (Tyr1068) Sandwich ELISA Kit is a solid phase sandwich enzyme-linked immunosorbent assay (ELISA) that detects endogenous levels of phospho-EGF Receptor (Tyr1068) protein. […] All cells were cultured according to ATCC recommendations. A549, NCI-H1975, PC9, and NCI-H3255 cells were grown in RPMI media (Invitrogen, Carlsbad, Calif.) supplemented with 10% FBS (Sigma, St Louis, Mo.), and with 1% Penn/Strep (Invitrogen). PC9-DRH cells were grown in RPMI with 10% FBS and 1 μM dacomitinib.
Cells were plated at 40,000/well in complete culture media (50 μL/well) on the bottom of clear tissue culture treated microtiter plates (#3595, Corning Inc, Corning, N.Y.) and allowed to adhere overnight at 37° C., 5% CO2. The following day, compound dilution plates were prepared in 96 well clear V-bottom 0.5 mL polypropylene block plates (#3956, Corning, Inc). Each compound was prepared as a DMSO stock solution (10 mM). Compounds were tested in duplicate on each plate, with an 11-point serial dilution curve (1:3 dilution). Compound treatment (50 μL) was added from the compound dilution plate to the cell plate. […] Plates were then incubated for 2 hr at 37° C., 5% CO2. For A549 (EGFR wildtype) assay, cells were plated in full-serum (10%) media for 24 hr prior to compound treatment; cells were treated in full serum media as described and then stimulated for 10 min with EGF (40 ng/mL/starvation media, Invitrogen). Immediately prior to the end of the incubation, ice-cold lysis buffer was prepared (1× Cell Lysis Buffer (#9803, Cell Signaling Technology), 1 mM sodium orthovanadate (Na3VO4, #96508, Sigma), 1 mM phenylmethanesulfonyl fluoride (PMSF, 52332, CalBiochem/EMD Chemicals), complete Mini EDTA-free Protease Inhibitor Cocktail Tablet (1 tablet/10 mL, #11836170001, Roche, Indianapolis, Ind.), and PhosSTOP Phosphatase Inhibitor Cocktail Tablet (1 tablet/10 mL, #04906837001, Roche) in pure water. At the end of 2 hr, media was flicked off and cells were washed once with ice-cold 1 mM Na3VO4 in PBS (100 μL/well, Invitrogen). The wash was then flicked off and ice-cold lysis buffer was added to the cells (50 μL/well). The plate was shaken for 20-30 min at 4° C. to completely lyse the cells. Sample diluent (50 μL/well) was added to the ELISA plate, and the lysate (50 μL) was diluted into the sample diluent in each well of the ELISA plate. Plates were sealed and incubated overnight at 4° C. with shaking. The next day, wells were washed four times with 1× Wash Buffer; plates were taped on lint-free paper after the final wash prior to adding Add Detection Antibody (green, 100 μL/well) to each well and incubating for 1 hr at 37° C. After incubation, wells were washed as described. HRP-Linked secondary antibody (red, 100 μL/well) was added to each well and incubated for 30 min at 37° C. After incubation, the wells were washed as described. TMB Substrate (100 μL/well) was added to each well and the plate incubated for 10 min at 37° C. or 30 min at rt maximum. Stop Solution (100 μL/well) was added to each well at the end of the incubation and plates were shaken gently for a few seconds. Absorbance was read at 450 nm within 30 min after addition of Stop Solution on a PerkinElmer EnVision Excite Multilabel Reader Method for Absorbance or on a Molecular Devices SpectraMax^384 Reader for absorbance. Data were analyzed using a four-parameter fit in Microsoft Excel.

For experiment [2], the target named is T2, EGFR wildtype, endogenous (A549) (Homo sapiens, UniProt P00533).
T2 construct: A549 (EGFR wildtype, endogenous); host or cells: A549 (stimulated with EGF)
T2 sequence (P00533 25-1210): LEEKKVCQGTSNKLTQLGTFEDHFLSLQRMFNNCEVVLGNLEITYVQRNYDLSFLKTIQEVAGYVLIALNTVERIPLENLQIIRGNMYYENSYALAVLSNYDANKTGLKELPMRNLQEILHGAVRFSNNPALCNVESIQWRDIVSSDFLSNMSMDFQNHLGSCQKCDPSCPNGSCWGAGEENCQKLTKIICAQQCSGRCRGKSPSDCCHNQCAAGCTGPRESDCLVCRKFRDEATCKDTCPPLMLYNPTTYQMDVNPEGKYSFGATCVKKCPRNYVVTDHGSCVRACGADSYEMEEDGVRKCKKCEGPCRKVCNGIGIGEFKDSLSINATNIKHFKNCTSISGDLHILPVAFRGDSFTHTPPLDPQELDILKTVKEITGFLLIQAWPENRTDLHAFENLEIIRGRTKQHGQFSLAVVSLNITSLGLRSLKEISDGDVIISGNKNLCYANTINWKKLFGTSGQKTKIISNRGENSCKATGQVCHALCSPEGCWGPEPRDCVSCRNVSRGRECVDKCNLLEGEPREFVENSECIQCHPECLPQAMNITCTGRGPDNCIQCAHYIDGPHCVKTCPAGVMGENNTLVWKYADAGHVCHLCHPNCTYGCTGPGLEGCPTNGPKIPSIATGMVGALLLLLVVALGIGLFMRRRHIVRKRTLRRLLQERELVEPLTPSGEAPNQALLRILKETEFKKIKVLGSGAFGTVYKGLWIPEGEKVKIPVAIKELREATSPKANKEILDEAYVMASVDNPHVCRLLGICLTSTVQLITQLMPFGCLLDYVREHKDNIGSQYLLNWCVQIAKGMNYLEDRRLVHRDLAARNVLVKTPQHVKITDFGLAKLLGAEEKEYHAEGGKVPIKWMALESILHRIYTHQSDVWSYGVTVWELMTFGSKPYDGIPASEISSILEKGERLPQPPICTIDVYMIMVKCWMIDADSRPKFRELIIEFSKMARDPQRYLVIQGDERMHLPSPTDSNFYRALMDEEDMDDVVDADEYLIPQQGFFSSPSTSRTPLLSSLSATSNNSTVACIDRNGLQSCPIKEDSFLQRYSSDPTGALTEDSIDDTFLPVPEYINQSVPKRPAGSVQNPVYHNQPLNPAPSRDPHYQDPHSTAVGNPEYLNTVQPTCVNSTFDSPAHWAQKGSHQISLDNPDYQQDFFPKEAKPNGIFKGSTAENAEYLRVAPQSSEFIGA
The experiment in a line: pEGFR Y1068 ELISA assay, A549 cells. It is filed as cell-based. The conditions noted are these: inhibition of phosphorylation of EGFR at Tyr1068; A549 NSCLC cells; 2 hr compound incubation, then stimulated 10 min with EGF (40 ng/mL).

T1 sequence (P00533 25-1210 T790M/L858R): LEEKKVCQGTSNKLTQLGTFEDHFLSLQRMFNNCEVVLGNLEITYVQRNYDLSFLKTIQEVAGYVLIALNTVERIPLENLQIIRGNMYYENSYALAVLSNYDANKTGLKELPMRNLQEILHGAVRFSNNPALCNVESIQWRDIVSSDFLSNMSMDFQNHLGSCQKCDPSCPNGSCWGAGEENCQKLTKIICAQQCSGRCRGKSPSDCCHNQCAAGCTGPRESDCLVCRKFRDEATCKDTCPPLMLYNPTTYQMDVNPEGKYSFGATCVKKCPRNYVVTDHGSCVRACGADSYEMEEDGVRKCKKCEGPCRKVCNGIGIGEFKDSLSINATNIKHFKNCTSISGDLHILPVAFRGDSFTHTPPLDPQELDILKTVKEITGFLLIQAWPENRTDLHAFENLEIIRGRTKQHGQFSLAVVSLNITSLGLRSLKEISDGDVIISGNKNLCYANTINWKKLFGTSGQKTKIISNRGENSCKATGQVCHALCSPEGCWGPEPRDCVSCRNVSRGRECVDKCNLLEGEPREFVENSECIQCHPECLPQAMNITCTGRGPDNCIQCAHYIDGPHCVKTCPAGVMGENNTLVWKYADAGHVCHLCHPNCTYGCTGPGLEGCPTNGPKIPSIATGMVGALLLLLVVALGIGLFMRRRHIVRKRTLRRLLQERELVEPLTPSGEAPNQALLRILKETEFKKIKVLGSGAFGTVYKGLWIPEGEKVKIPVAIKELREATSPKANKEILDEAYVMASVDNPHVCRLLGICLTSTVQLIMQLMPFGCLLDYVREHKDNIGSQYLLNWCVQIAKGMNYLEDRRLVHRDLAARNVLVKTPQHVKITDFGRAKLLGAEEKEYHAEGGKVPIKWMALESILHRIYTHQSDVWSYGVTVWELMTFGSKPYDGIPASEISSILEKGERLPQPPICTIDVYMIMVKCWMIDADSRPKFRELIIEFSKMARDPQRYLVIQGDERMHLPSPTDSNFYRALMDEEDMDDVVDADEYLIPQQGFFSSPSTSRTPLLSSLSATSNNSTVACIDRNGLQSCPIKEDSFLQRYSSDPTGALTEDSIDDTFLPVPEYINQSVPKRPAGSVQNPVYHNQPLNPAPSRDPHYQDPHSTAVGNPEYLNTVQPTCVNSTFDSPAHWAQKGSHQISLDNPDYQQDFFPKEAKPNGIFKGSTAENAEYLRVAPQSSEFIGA

Take `C=CC(=O)N[C@@H]1CN(c2nc(Nc3ccc(N4CCN(C)CC4)cc3)c3ncn(C(C)C)c3n2)C[C@H]1OC` (relative stereo) [Example 47, N-((trans)-1-(9-isopropyl-6-((4-(4-methylpiperazin-1-yl)phenyl)amino)-9H-purin-2-yl)-4-methoxypyrrolidin-3-yl)acrylamide]: 0.014 µM corresponded to half-maximal inhibition in experiment [1] (IC50). This counts as double-digit nanomolar.
With `C=CC(=O)N1C[C@H](Nc2nc(Nc3cnn(C)c3)c3ncn(C(C)C)c3n2)[C@@H](F)C1` (relative stereo) [Example 58, 1-((trans)-3-fluoro-4-((9-isopropyl-6-((1-methyl-1H-pyrazol-4-yl)amino)-9H-purin-2-yl)amino)pyrrolidin-1-yl)prop-2-en-1-one], the IC50 – broadly, the concentration that gives 50% inhibition – was found to be 0.058 µM in experiment [1] and 0.983 µM in experiment [2].
The corresponding values for `C=CC(=O)N1C[C@@H]2CN(c3nc(Nc4cnn(C)c4)c4ncn(C(C)C)c4n3)C[C@]2(F)C1` (relative stereo) [Example 73, 1-(cis-3a-fluoro-5-(9-isopropyl-6-((1-methyl-1H-pyrazol-4-yl)amino)-9H-purin-2-yl)hexahydropyrrolo[3,4-c]pyrrol-2(1H)-yl)prop-2-en-1-one] are 0.009 µM and 0.092 µM.
On to `C=CC(=O)N1CCCC(c2nc(Nc3cnn(C)c3)c3ncn(C(C)C)c3n2)C1` (single isomer, unassigned) [Example 6, 1-(3-(9-isopropyl-6-((1-methyl-1H-pyrazol-4-yl)amino)-9H-purin-2-yl)piperidin-1-yl)prop-2-en-1-one], for which the IC50 in experiment [1] was 1.04 µM; in experiment [2], ≥ 10 µM.
The corresponding values for `C=CC(=O)N1C[C@H](Nc2nc(Nc3cnn(C)c3)c3ncn(C(C)C)c3n2)[C@@H](F)C1` (single isomer, unassigned) [Example 30, 1-((trans*)-3-fluoro-4-((9-isopropyl-6-((1-methyl-1H-pyrazol-4-yl)amino)-9H-purin-2-yl)amino)pyrrolidin-1-yl)prop-2-en-1-one] are 0.082 µM and 3.85 µM.
For `C=CC(=O)N1CCC(Oc2nc(Nc3cnn(C)c3)c3ncn(C(C)C)c3n2)C1` (stereo in doubt) [Example 59, (R)-1-(3((9-isopropyl-6-((1-methyl-1H-pyrazol-4-yl)amino)-9H-purin-2-yl)oxy)pyrrolidin-1-yl)prop-2-en-1-one] the same measures were 0.162 µM and 4.05 µM.
On to `C=CC(=O)NC1(C)CCN(c2nc(Nc3ccc(N4CCN(C)CC4)cc3)c3ncn(C(C)C)c3n2)C1` (stereo not drawn) [Example 10, N-(1-(9-isopropyl-6-((4-(4-methylpiperazin-1-yl)phenyl)amino)-9H-purin-2-yl)-3-methylpyrrolidin-3-yl)acrylamide], for which the half-inhibitory concentration (IC50) is 0.846 µM in experiment [1] and ≥ 10 µM in experiment [2].
The corresponding values for `C=CC(=O)N[C@H]1CCN(c2nc(Nc3cn(C)nc3OC)c3ncn(C(C)C)c3n2)C1` [Example 11, (S)-N-(1-(9-isopropyl-6-((3-methoxy-1-methyl-1H-pyrazol-4-yl)amino)-9H-purin-2-yl)pyrrolidin-3-yl)acrylamide] are 0.162 µM and 2.84 µM.
Take `C=CC(=O)N[C@H]1C[C@H](Oc2nc(Nc3ccc(N4CCN(C)CC4)cc3)c3ncn(C(C)C)c3n2)C1` [Example 14, N-((trans)-3-((9-isopropyl-6-((4-(4-methylpiperazin-1-yl)phenyl)amino)-9H-purin-2-yl)oxy)cyclobutyl)acrylamide]: the values for the IC50 in experiment [1] and in experiment [2] were 0.285 µM and ≥ 10 µM, respectively.
For `C=CC(=O)N[C@H]1CCN(c2nc(Nc3ccc(N4CCN(C)CC4)cc3)c3ncn(C4CCC4)c3n2)C1` [Example 15] the same measures were 0.055 µM and 0.117 µM.
For `C=CC(=O)NC1CN(c2nc(Nc3ccc(N4CCN(C)CC4)cc3)c3ncn(C(C)C)c3n2)C1` [Example 23, N-(1-(9-isopropyl-6-((4-(4-methylpiperazin-1-yl)phenyl)amino)-9H-purin-2-yl)azetidin-3-yl)acrylamide] the same measures were 0.039 µM and 1.42 µM.
For `C=CC(=O)N(C)C1CN(c2nc(Nc3ccc(N4CCN(C)CC4)cc3)c3ncn(C(C)C)c3n2)C1` [Example 24, N-(1-(9-isopropyl-6-((4-(4-methylpiperazin-1-yl)phenyl)amino)-9H-purin-2-yl)azetidin-3-yl)-N-methylacrylamide] the same measures were 0.039 µM and 1.14 µM.
Take `C=CC(=O)N1CC[C@@H](Oc2nc(Nc3ccc(N4CCN(C)CC4)cc3)c3ncn(C(C)C)c3n2)C1` [Example 26, (R)-1-(3-((9-isopropyl-6-((4-(4-methylpiperazin-1-yl)phenyl)amino)-9H-purin-2-yl)oxy)pyrrolidin-1-yl)prop-2-en-1-one]: the concentration for half-maximal inhibition (IC50) in experiment [1] came out at 0.025 µM; in experiment [2] it was 0.682 µM.
As for `C=CC(=O)N1CC[C@@H](Nc2nc(Nc3ccc(N4CCN(C)CC4)cc3)c3ncn(C(C)C)c3n2)C1` [Example 27, (R)-1-(3-((9-isopropyl-6-((4-(4-methylpiperazin-1-yl)phenyl)amino)-9H-purin-2-yl)amino)pyrrolidin-1-yl)prop-2-en-1-one], the IC50 in experiment [1] is 0.029 µM; in experiment [2], 0.387 µM.
The corresponding values for `C=CC(=O)N(C)[C@H]1C[C@H](Nc2nc(Nc3ccc(N4CCN(C)CC4)cc3)c3ncn(C(C)C)c3n2)C1` [Example 28, N-((trans)-3-((9-isopropyl-6-((4-(4-methylpiperazin-1-yl)phenyl)amino)-9H-purin-2-yl)amino)cyclobutyl)-N-methylacrylamide] are 0.048 µM and 0.723 µM.
The corresponding values for `C=CC(=O)N(C)C1CN(c2nc(Nc3cnn(C)c3)c3ncn(C(C)C)c3n2)C1` [Example 31, N-(1-(9-isopropyl-6((1-methyl-1H-pyrazol-4-yl)amino)-9H-purin-2-yl)azetidin-3-yl)-N-methylacrylamide] are 0.076 µM and 1.35 µM.
For `C=CC(=O)N1CC(C)(Nc2nc(Nc3cnn(C)c3)c3ncn(C(C)C)c3n2)C1` [Example 32, 1-(3-((9-isopropyl-6-((1-methyl-1H-pyrazol-4-yl)amino)-9H-purin-2-yl)amino)-3-methylazetidin-1-yl)prop-2-en-1-one], the values for the IC50 in experiment [1] and in experiment [2] were 0.065 µM and 1.23 µM, respectively.
The corresponding values for `C=CC(=O)N1C[C@@H]2CN(c3nc(Nc4cnn(C)c4)c4ncn(C)c4n3)C[C@@H]2C1` [Example 34, 1-((cis)-5-(9-methyl-6-((1-methyl-1H-pyrazol-4-yl)amino)-9H-purin-2-yl)hexahydropyrrolo[3,4-c]pyrrol-2(1H)-yl)prop-2-en-1-one] are 0.161 µM and 2.67 µM.
For `C=CC(=O)N[C@H]1CCN(c2nc(Nc3ccc(N4CCN(C)CC4)cc3)c3ncn(CC)c3n2)C1` [Example 35, (S)-N-(1-(9-ethyl-6-((4-(4-methylpiperazin-1-yl)phenyl)amino)-9H-purin-2-yl)pyrrolidin-3-yl)acrylamide] the same measures were 0.011 µM and 0.095 µM.
The corresponding values for `C=CC(=O)N[C@H]1CCN(c2nc(Nc3cn(C)nc3C)c3ncn(C(C)C)c3n2)C1` [Example 37, (S)-N-(1-(6-((1,3-dimethyl-1H-pyrazol-4-yl)amino)-9-isopropyl-9H-purin-2-yl)pyrrolidin-3-yl)acrylamide] are 0.391 µM and 7.61 µM.
